Columns and labels:
[1] = biological target: T1, Adenosine receptor A2b (Homo sapiens) (UniProt P29275); assay: Displacement of [3H]DPCPX from recombinant human adenosine A2B receptor expressed in HEK293 cells at 0.1 uM; type: cell-based
T1 sequence (whole entry): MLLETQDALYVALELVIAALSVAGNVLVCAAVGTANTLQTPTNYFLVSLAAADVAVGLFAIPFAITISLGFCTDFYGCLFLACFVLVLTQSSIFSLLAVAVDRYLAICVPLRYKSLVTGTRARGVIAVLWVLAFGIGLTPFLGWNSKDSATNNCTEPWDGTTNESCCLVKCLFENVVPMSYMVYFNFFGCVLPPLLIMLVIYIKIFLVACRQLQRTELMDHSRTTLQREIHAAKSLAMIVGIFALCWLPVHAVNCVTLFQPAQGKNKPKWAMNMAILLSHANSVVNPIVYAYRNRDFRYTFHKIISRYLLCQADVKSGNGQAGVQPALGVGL

[2] = biological target: T1, Adenosine receptor A2b (Homo sapiens); assay: Displacement of [3H]DPCPX from recombinant human adenosine A2B receptor expressed in HEK293 cells at 0.01 uM
[3] = biological target: T2, Adenosine receptor A3 (Homo sapiens, UniProt P0DMS8)
T2 sequence (P0DMS8 whole entry): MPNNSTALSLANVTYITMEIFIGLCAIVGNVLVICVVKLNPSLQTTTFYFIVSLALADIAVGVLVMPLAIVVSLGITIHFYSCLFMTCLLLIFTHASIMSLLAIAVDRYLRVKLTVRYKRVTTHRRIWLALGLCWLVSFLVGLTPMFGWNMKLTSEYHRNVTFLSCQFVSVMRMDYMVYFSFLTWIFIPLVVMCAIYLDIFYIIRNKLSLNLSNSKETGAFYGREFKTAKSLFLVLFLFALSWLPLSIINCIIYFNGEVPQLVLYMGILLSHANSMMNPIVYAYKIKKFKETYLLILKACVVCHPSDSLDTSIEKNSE
Description: Binding affinity to recombinant human adenosine A3 receptor

[4] = biological target: T3, Adenosine receptor A2a (Rattus norvegicus, UniProt P30543); assay: Antagonist potency against adenosine A2A receptor of Sprague-Dawley rat aortic smooth muscle; type: functional; details: read-out: pA2 (converted)
T3 sequence (P30543 whole entry): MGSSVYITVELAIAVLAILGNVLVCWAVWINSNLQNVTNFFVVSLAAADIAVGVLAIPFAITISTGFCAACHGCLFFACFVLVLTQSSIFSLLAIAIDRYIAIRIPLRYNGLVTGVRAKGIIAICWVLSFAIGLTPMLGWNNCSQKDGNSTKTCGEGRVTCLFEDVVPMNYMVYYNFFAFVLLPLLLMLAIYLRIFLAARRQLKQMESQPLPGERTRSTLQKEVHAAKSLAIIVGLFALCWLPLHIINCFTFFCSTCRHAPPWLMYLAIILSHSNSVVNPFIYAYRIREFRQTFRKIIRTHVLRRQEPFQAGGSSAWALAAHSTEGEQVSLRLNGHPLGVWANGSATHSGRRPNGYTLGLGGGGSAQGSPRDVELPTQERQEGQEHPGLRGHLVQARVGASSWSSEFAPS

[5] = biological target: T4, Adenosine receptor A2a (Homo sapiens, UniProt P29274); assay: Displacement of [3H]ZM-241385 from recombinant human adenosine A2A receptor expressed in HeLa cells at 0.1 uM
T4 sequence (P29274 whole entry): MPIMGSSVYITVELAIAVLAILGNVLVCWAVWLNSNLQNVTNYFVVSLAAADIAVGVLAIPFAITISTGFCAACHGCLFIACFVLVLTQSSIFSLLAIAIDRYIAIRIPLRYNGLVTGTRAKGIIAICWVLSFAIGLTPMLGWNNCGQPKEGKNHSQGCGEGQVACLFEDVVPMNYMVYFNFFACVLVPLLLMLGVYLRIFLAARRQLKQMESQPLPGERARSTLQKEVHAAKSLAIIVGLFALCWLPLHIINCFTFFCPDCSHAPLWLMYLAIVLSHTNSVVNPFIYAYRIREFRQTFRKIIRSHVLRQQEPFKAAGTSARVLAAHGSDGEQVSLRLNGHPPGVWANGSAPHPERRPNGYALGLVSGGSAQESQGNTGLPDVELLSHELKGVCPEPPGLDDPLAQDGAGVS

[6] = biological target: T5, Adenosine receptor A1 (Homo sapiens, UniProt P30542)
T5 sequence (P30542 whole entry): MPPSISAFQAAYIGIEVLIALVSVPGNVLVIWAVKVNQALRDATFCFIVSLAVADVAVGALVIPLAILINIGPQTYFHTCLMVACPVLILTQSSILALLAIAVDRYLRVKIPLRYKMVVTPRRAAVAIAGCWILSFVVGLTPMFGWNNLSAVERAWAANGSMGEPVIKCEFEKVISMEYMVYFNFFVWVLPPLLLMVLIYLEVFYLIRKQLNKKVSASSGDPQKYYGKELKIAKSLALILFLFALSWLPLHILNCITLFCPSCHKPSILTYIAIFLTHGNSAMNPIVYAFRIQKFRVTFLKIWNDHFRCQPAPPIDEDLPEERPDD
Description: Binding affinity to recombinant human adenosine A1 receptor

[7] = biological target: T6, Adenosine receptor A2b (Homo sapiens, UniProt P29275)
T6 sequence (P29275 whole entry): T1 sequence (whole entry)
Description: Binding affinity to recombinant human adenosine A2B receptor

[8] = biological target: T3, Adenosine receptor A2a; assay: Binding affinity to rat adenosine A2A receptor
[9] = biological target: T7, Adenosine receptor A3 (Homo sapiens) (UniProt P0DMS8); assay: Displacement of [3H]NECA from recombinant human adenosine A3 receptor expressed in HeLa cells at 1uM; type: cell-based
T7 sequence (whole entry): T2 sequence (P0DMS8 whole entry)

[10] = biological target: T4, Adenosine receptor A2a
Description: Binding affinity to recombinant human adenosine A2A receptor

[11] = biological target: T8, Adenosine receptor A1 (Rattus norvegicus, UniProt P25099); assay: Binding affinity to rat adenosine A1 receptor
T8 sequence (P25099 whole entry): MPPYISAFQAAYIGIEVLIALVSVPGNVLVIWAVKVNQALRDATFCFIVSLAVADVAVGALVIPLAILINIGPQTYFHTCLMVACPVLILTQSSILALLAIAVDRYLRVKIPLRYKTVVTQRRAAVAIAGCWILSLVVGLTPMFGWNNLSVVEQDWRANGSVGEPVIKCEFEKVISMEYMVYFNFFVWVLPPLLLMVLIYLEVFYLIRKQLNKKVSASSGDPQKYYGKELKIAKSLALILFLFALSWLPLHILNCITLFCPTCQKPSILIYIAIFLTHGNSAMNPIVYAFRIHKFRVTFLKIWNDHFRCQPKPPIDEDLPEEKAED

Row | Structure (SMILES) | inhibition [1] | inhibition [2] | Ki [3] | Kb [4] | inhibition [5] | Ki [6] | Ki [7] | Ki [8] | inhibition [9] | Ki [10] | Ki [11]
1 | COc1cc(OCC(=O)Nc2ccc(Br)cc2)ccc1-c1cc2c([nH]1)c(=O)n(C)c(=O)n2C | 83% | 60% | 10700 nM | 933 nM | 20% | 32.4 nM |  |  |  |  | 
2 | Cn1c(=O)c2[nH]c(-c3ccc(OCC(=O)Nc4ccc(C#N)cc4)cc3)cc2n(C)c1=O | 91% | 60% |  | 43.7 nM | 47% | 4.27 nM |  |  |  |  | 
3 | CCCn1c(=O)c2nc(-c3ccc(OCC(=O)Nc4ccc(C)cc4)cc3)[nH]c2n(CCC)c1=O |  |  |  |  |  |  | 1.91 nM | 129 nM |  |  | 
4 | Cn1c(=O)c2[nH]c(-c3ccc(OCC(=O)Nc4ccc(Br)cc4)cc3)cc2n(C)c1=O | 90% | 84% |  | 126 nM | 12% | 18.2 nM |  |  | 8% |  | 
5 | CC(Oc1ccc(-c2cc3c([nH]2)c(=O)n(C)c(=O)n3C)cc1)C(=O)Nc1ccccc1 (stereo not given) | 99% | 73% | 912 nM |  | 60% | 7.76 nM | 4.79 nM |  |  | 47.9 nM | 
6 | CCCn1c(=O)c2[nH]c(-c3ccc(OCC(=O)Nc4ccccc4)cc3)nc2n(CCC)c1=O |  |  |  |  |  | 40.7 nM | 1.51 nM |  |  | 2.24 nM | 
7 | Cn1c(=O)c2[nH]c(-c3ccc(OCC(=O)Nc4ccc(F)cc4)cc3)cc2n(C)c1=O | 100% | 72% |  | 51.3 nM | 41% | 14.8 nM |  |  | 20% |  | 
8 | COc1cccc(CNC(=O)COc2ccc(-c3cc4c([nH]3)c(=O)n(C)c(=O)n4C)cc2)c1 | 61% | 15% |  |  | 11% |  | 51.3 nM |  |  | 331 nM | 
9 | Cn1c(=O)c2[nH]c(-c3ccc(OCC(=O)Nc4ccc(CCN)cc4)cc3)cc2n(C)c1=O | 34% | 7% |  |  | 38% |  | 186 nM |  |  | 166 nM | 
10 | CCCn1c(=O)c2[nH]c(-c3ccc(OCC(=O)Nc4ccc(OC)cc4)cc3)cc2n(CCC)c1=O | 80% | 22% |  |  | 52% |  | 12 nM |  |  | 20 nM | 
11 | CCCn1c(=O)c2[nH]c(-c3ccc(OCC(=O)Nc4ccc(CS(=O)(=O)N5CCCC5)cc4)cc3)cc2n(CCC)c1=O | 70% | 58% |  |  | 31% |  | 7.76 nM |  |  | 52.5 nM | 
12 | CCCn1c(=O)c2[nH]c(-c3ccc(OCC(=O)O)cc3)nc2n(CCC)c1=O |  |  | 3980 nM |  |  |  |  | 2240 nM |  |  | 63.1 nM
13 | CCCn1c(=O)n(C)c(=O)c2[nH]c(-c3ccc(OCC(=O)Nc4ccc(F)cc4)cc3)cc21 | 93% | 43% |  |  | 24% |  | 9.55 nM |  |  | 112 nM | 
14 | CCCn1c(=O)c2[nH]c(-c3ccc(OCC(=O)Nc4ccc(-c5ccccc5)cc4)cc3)cc2n(CCC)c1=O | 80% | 40% |  |  | 36% |  | 16.2 nM |  |  | 69.2 nM | 
15 | CCCn1c(=O)c2[nH]c(-c3ccc(OCC(=O)Nc4ccc(F)cc4)cc3)nc2n(CCC)c1=O |  |  |  |  |  | 18.2 nM |  |  |  |  | 
16 | Cn1c(=O)c2[nH]c(-c3ccc(OCC(=O)Nc4ccccc4)cc3)cc2n(C)c1=O | 91% | 44% |  |  | 10% | 240 nM |  |  |  |  | 
17 | CCCn1c(=O)c2[nH]c(-c3ccc(OCC(=O)NCc4ccccc4)cc3)nc2n(CCC)c1=O |  |  | 141 nM |  |  | 63.1 nM |  |  |  | 20 nM | 
18 | CCCn1c(=O)c2[nH]c(-c3ccc(OC(CC)C(=O)Nc4ccc(F)cc4)cc3)cc2n(CCC)c1=O (stereo not given) | 100% | 68% |  |  | 88% |  | 4.79 nM |  |  | 19.1 nM | 

Next, values leading:

Row | inhibition [1] | inhibition [2] | Ki [3] | Kb [4] | inhibition [5] | Ki [6] | Ki [7] | Ki [8] | inhibition [9] | Ki [10] | Ki [11] | Structure (SMILES)
19 | 93% | 39% | 12300 nM | 468 nM | 15% | 11 nM |  |  |  |  |  | CCCn1c(=O)c2[nH]c(-c3ccc(OCC(=O)Nc4ccc(-c5ccccc5)cc4)cc3)cc2n(C)c1=O
20 |  |  | 2340 nM |  |  |  | 2.4 nM |  |  | 1660 nM |  | CCCn1c(=O)c2[nH]c(-c3ccc(OCC(=O)Nc4ccc(Br)cc4)cc3)nc2n(CCC)c1=O
21 | 95% | 78% |  |  | 38% |  | 3.16 nM |  |  | 89.1 nM |  | CCCn1c(=O)c2[nH]c(-c3ccc(OCC(=O)NCc4ccccc4)cc3)cc2n(CCC)c1=O
22 | 91% | 45% |  |  | 22% |  | 7.76 nM |  |  | 186 nM |  | CCn1c(=O)c2[nH]c(-c3ccc(OCC(=O)Nc4ccccc4)cc3)cc2n(CC)c1=O
23 | 66% | 21% |  |  | 76% |  | 21.9 nM |  |  | 15.8 nM |  | CCCn1c(=O)c2[nH]c(-c3ccc(OCC(=O)c4c(NC(=O)O)[nH]c(=O)n(C)c4=O)cc3)cc2n(CCC)c1=O
24 | 97% | 66% |  |  | 54% |  | 2.19 nM |  |  | 30.9 nM |  | CCCn1c(=O)c2[nH]c(-c3ccc(OCC(=O)Nc4ccc(Br)cc4)cc3)cc2n(CCC)c1=O
25 | 94% | 57% |  |  | 47% |  | 5.62 nM |  |  | 66.1 nM |  | CCCn1c(=O)c2[nH]c(-c3ccc(OCC(=O)Nc4ccc(F)cc4)cc3)cc2n(C)c1=O
26 | 95% | 58% |  |  | 61% |  | 3.16 nM |  |  | 31.6 nM |  | CCCn1c(=O)c2[nH]c(-c3ccc(OCC(=O)Nc4ccc(Cl)cc4)cc3)cc2n(CCC)c1=O
27 | 87% | 14% |  |  | 28% |  | 33.9 nM |  |  | 224 nM |  | CCCn1c(=O)c2[nH]c(-c3ccc(OCC(=O)Nc4ccc(CC(=O)O)cc4)cc3)cc2n(CCC)c1=O
28 | 80% | 33% |  |  | 40% |  | 21.4 nM |  |  | 195 nM |  | CCCn1c(=O)n(C)c(=O)c2[nH]c(-c3ccc(OCC(=O)Nc4ccccc4)cc3)cc21

From ChEMBL document CHEMBL1148617, “Design, synthesis, and structure-activity relationships of 1-,3-,8-, and 9-substituted-9-deazaxanthines at the human A2B adenosine receptor” (J Med Chem, 2006)
